# Reference: patent US20250127801A1, “BRIDGED TRICYCLIC CARBAMOYLPYRIDONE COMPOUNDS AND USES THEREOF” (priority 2023, published 2025)
# Read-outs that look alike come from different tables or passages of the source.
# Experiments:
# physchem = details: 23 °C, thermodynamic from solid; for solubility thermodynamic at 24 h: FaSSIF; for solubility thermodynamic: fassif
# in vitro = details: human; for CC50 at 5 days: uninfected MT-4 cells
# HIV-1 (IIIB) = assay: microbe, parasite or virus in culture; assay type: cell-based
# [1] = Human immunodeficiency virus 1, MT4, 120 h, HIV-1 (IIIB) replication in MT-4 cells, 5 days incubation, Cell Titer Glo, read-out: MT4 EC50
# [2] = Human immunodeficiency virus 1, IIIB, MT4, 120 h, read-out: MT4 EC50 (nM)
SMILES,solubility thermodynamic at 24 h (physchem) [µg/mL],CC50 at 5 days (in vitro) [µM],EC50 (HIV-1 (IIIB); [1]) [nM],solubility thermodynamic (physchem) [µg/mL],CC50 (in vitro) [µM],EC50 (HIV-1 (IIIB); [2]) [nM]
"CC1=NO[C@@]2(CC[C@H](C)N3C[C@H]2n2cc(C(=O)NCc4ccc(F)cc4F)c(=O)c(OCOC(=O)O[C@H]4CCCC[C@H]4COP(=O)(O)O)c2C3=O)C1 [Compound 53, (((3′S,5S,7′R)-10′-((2,4-difluorobenzyl)carbamoyl)-3,3′-dimethyl-1′,11′-dioxo-1′,4′,5′,11′-tetrahydro-3′H,4H,7′H-spiro[isoxazole-5,6′-[2,7]methanopyrido[1,2-a][1,4]diazonin]-12′-yl)oxy)methyl ((1S,2S)-2-((phosphonooxy)methyl)cyclohexyl) carbonate]",4680,35.7,4.96,–,–,–
"CC1=NO[C@@]2(CC[C@H](C)N3C[C@H]2n2cc(C(=O)NCc4ccc(F)cc4F)c(=O)c(OCOC(=O)N(C)Cc4ccc(OP(=O)(O)O)cc4)c2C3=O)C1 [Compound 39, (((3′S,5S,7′R)-10′-((2,4-difluorobenzyl)carbamoyl)-3,3′-dimethyl-1′,11′-dioxo-1′,4′,5′,11′-tetrahydro-3′H,4H,7′H-spiro[isoxazole-5,6′-[2,7]methanopyrido[1,2-a][1,4]diazonin]-12′-yl)oxy)methyl methyl(4-(phosphonooxy)benzyl)carbamate]",–,–,–,4830,≥ 50,88.7
"CC1=NO[C@@]2(CC[C@H](C)N3C[C@H]2n2cc(C(=O)NCc4ccc(F)cc4F)c(=O)c(OCOC(=O)OCCC(C)(C)c4c(CC(=O)O)cc(C)cc4OP(=O)(O)O)c2C3=O)C1 [Compound 23, 2-(2-(4-((((((3′S,5S,7′R)-10′-((2,4-difluorobenzyl)carbamoyl)-3,3′-dimethyl-1′,11′-dioxo-1′,4′,5′,11′-tetrahydro-3′H,4H,7′H-spiro[isoxazole-5,6′-[2,7]methanopyrido[1,2-a][1,4]diazonin]-12′-yl)oxy)methoxy)carbonyl)oxy)-2-methylbutan-2-yl)-5-methyl-3-(phosphonooxy)phenyl)acetic acid]",–,–,–,4750,14.6,2.11
"CC1=NO[C@@]2(CC[C@H](C)N3C[C@H]2n2cc(C(=O)NCc4ccc(F)cc4F)c(=O)c(OCOC(=O)CC(C)(C)c4c(CC(=O)N[C@@H](CC(=O)O)C(=O)O)cc(C)cc4OP(=O)(O)O)c2C3=O)C1 [Compound 43, (2-(2-(4-((((3′S,5S,7′R)-10′-((2,4-difluorobenzyl)carbamoyl)-3,3′-dimethyl-1′,11′-dioxo-1′,4′,5′,11′-tetrahydro-3′H,4H,7′H-spiro[isoxazole-5,6′-[2,7]methanopyrido[1,2-a][1,4]diazonin]-12′-yl)oxy)methoxy)-2-methyl-4-oxobutan-2-yl)-5-methyl-3-(phosphonooxy)phenyl)acetyl)-L-aspartic acid]",–,–,–,5280,30.7,2.64
"CC1=NO[C@@]2(CC[C@H](C)N3C[C@H]2n2cc(C(=O)NCc4ccc(F)cc4F)c(=O)c(OC(=O)N(C)c4ncccc4CN(CC(=O)O)C(=O)OCOP(=O)(O)O)c2C3=O)C1 [Compound 6, N-((2-(((((3′S,5S,7′R)-10′-((2,4-difluorobenzyl)carbamoyl)-3,3′-dimethyl-1′,11′-dioxo-1′,4′,5′,11′-tetrahydro-3′H,4H,7′H-spiro[isoxazole-5,6′-[2,7]methanopyrido[1,2-a][1,4]diazonin]-12′-yl)oxy)carbonyl)(methyl)amino)pyridin-3-yl)methyl)-N-(((phosphonooxy)methoxy)carbonyl)glycine]",–,–,–,4810,10.1,0.917
"CC1=NO[C@@]2(CC[C@H](C)N3C[C@H]2n2cc(C(=O)NCc4ccc(F)cc4F)c(=O)c(OCOC(=O)O[C@@H]4CCCC[C@H]4OP(=O)(O)O)c2C3=O)C1 [Compound 45, (((3′S,5S,7′R)-10′-((2,4-difluorobenzyl)carbamoyl)-3,3′-dimethyl-1′,11′-dioxo-1′,4′,5′,11′-tetrahydro-3′H,4H,7′H-spiro[isoxazole-5,6′-[2,7]methanopyrido[1,2-a][1,4]diazonin]-12′-yl)oxy)methyl ((1R,2R)-2-(phosphonooxy)cyclohexyl) carbonate]",5320,11.4,1.73,–,–,–
"COC1=NO[C@@]2(CC[C@H](C)N3C[C@H]2n2cc(C(=O)NCc4ccc(F)cc4F)c(=O)c(OCOC(=O)N(C)c4ncccc4COP(=O)(O)O)c2C3=O)C1 [Compound 3, (((3′S,5S,7′R)-10′-((2,4-difluorobenzyl)carbamoyl)-3-methoxy-3′-methyl-1′,11′-dioxo-1′,4′,5′,11′-tetrahydro-3′H,4H,7′H-spiro[isoxazole-5,6′-[2,7]methanopyrido[1,2-a][1,4]diazonin]-12′-yl)oxy)methylmethyl(3-((phosphonooxy)methyl)pyridin-2-yl)carbamate]",5410,12.6,2.15,–,–,–
"COC1=NO[C@@]2(CC[C@H](C)N3C[C@H]2n2cc(C(=O)NCc4ccc(F)cc4F)c(=O)c(OC(=O)N(C)c4ncccc4CN(CC(=O)O)C(=O)OCOP(=O)(O)O)c2C3=O)C1 [Compound 59, N-((2-(((((3′S,5S,7′R)-10′-((2,4-difluorobenzyl)carbamoyl)-3-methoxy-3′-methyl-1′,11′-dioxo-1′,4′,5′,11′-tetrahydro-3′H,4H,7′H-spiro[isoxazole-5,6′-[2,7]methanopyrido[1,2-a][1,4]diazonin]-12′-yl)oxy)carbonyl)(methyl)amino)pyridin-3-yl)methyl)-N-(((phosphonooxy)methoxy)carbonyl)glycine]",–,–,–,5280,10.6,1.2
"CC1=NO[C@@]2(CC[C@H](C)N3C[C@H]2n2cc(C(=O)NCc4ccc(F)cc4F)c(=O)c(OCc4ccncc4OP(=O)(O)O)c2C3=O)C1 [Compound 70, 4-((((3′S,5S,7′R)-10′-((2,4-difluorobenzyl)carbamoyl)-3,3′-dimethyl-1′,11′-dioxo-1′,4′,5′,11′-tetrahydro-3′H,4H,7′H-spiro[isoxazole-5,6′-[2,7]methanopyrido[1,2-a][1,4]diazonin]-12′-yl)oxy)methyl)pyridin-3-yl dihydrogen phosphate]",–,–,–,2460,10.2,1.63
"CC1=NO[C@@]2(CC[C@H](C)N3C[C@H]2n2cc(C(=O)NCc4ccc(F)cc4F)c(=O)c(OCOC(=O)N(C)Cc4ccccc4OP(=O)(O)O)c2C3=O)C1 [Compound 37, (((3′S,5S,7′R)-10′-((2,4-difluorobenzyl)carbamoyl)-3,3′-dimethyl-1′,11′-dioxo-1′,4′,5′,11′-tetrahydro-3′H,4H,7′H-spiro[isoxazole-5,6′-[2,7]methanopyrido[1,2-a][1,4]diazonin]-12′-yl)oxy)methyl methyl(2-(phosphonooxy)benzyl)carbamate]",–,–,–,4500,33.5,13.3
"CC1=NO[C@@]2(CC[C@H](C)N3C[C@H]2n2cc(C(=O)NCc4ccc(F)cc4F)c(=O)c(OCOC(=O)N4CCOC[C@@H]4COP(=O)(O)O)c2C3=O)C1 [Compound 63, (((3′S,5S,7′R)-10′-((2,4-difluorobenzyl)carbamoyl)-3,3′-dimethyl-1′,11′-dioxo-1′,4′,5′,11′-tetrahydro-3′H,4H,7′H-spiro[isoxazole-5,6′-[2,7]methanopyrido[1,2-a][1,4]diazonin]-12′-yl)oxy)methyl (3R)-3-((phosphonooxy)methyl)morpholine-4-carboxylate]",–,–,–,5000,≥ 50,18.7
"CC1=NO[C@@]2(CC[C@H](C)N3C[C@H]2n2cc(C(=O)NCc4ccc(F)cc4F)c(=O)c(OCOC(=O)OCC4(COP(=O)(O)O)COC4)c2C3=O)C1 [Compound 56, (((3′S,5S,7′R)-10′-((2,4-difluorobenzyl)carbamoyl)-3,3′-dimethyl-1′,11′-dioxo-1′,4′,5′,11′-tetrahydro-3′H,4H,7′H-spiro[isoxazole-5,6′-[2,7]methanopyrido[1,2-a][1,4]diazonin]-12′-yl)oxy)methyl ((3-((phosphonooxy)methyl)oxetan-3-yl)methyl) carbonate]",3560,12.8,2.4,–,–,–
"CC1=NO[C@@]2(CC[C@H](C)N3C[C@H]2n2cc(C(=O)NCc4ccc(F)cc4F)c(=O)c(OCc4ccc(OP(=O)(O)O)cn4)c2C3=O)C1 [Compound 71, 6-((((3′S,5S,7′R)-10′-((2,4-difluorobenzyl)carbamoyl)-3,3′-dimethyl-1′,11′-dioxo-1′,4′,5′,11′-tetrahydro-3′H,4H,7′H-spiro[isoxazole-5,6′-[2,7]methanopyrido[1,2-a][1,4]diazonin]-12′-yl)oxy)methyl)pyridin-3-yl dihydrogen phosphate]",–,–,–,3470,9.3,1.02
"CC1=NO[C@@]2(CC[C@H](C)N3C[C@H]2n2cc(C(=O)NCc4ccc(F)cc4F)c(=O)c(OCc4ccccc4OP(=O)(O)O)c2C3=O)C1 [Compound 69, 2-((((3′S,5S,7′R)-10′-((2,4-difluorobenzyl)carbamoyl)-3,3′-dimethyl-1′,11′-dioxo-1′,4′,5′,11′-tetrahydro-3′H,4H,7′H-spiro[isoxazole-5,6′-[2,7]methanopyrido[1,2-a][1,4]diazonin]-12′-yl)oxy)methyl)phenyl dihydrogen phosphate]",–,–,–,5140,14.1,1.78
"CCCCCCCCCCCCCC(=O)Oc1ccc(C(=O)Oc2c3n(cc(C(=O)NCc4ccc(F)cc4F)c2=O)[C@@H]2CN(C3=O)[C@@H](C)CC[C@]23CC(C)=NO3)cc1 [Compound 100, (3′S,5S,7′R)-10′-((2,4-difluorobenzyl)carbamoyl)-3,3′-dimethyl-1′,11′-dioxo-1′,4′,5′,11′-tetrahydro-3′H,4H,7′H-spiro[isoxazole-5,6′-[2,7]methanopyrido[1,2-a][1,4]diazonin]-12′-yl 4-(tetradecanoyloxy)benzoate]",64.5,12.8,2.94,–,–,–
